Tests used:
Assay type in all cases: physicochemical
[1] = Solubility in hexane during purification; details: reflux then room temperature
Method: Oxidative coupling reaction and solvent extraction were performed under the same conditions as in Example 1. Ethyl acetate was distilled off under vacuum, and then hexane was added to the resultant crude product. The mixture was transferred to a SUS container provided with a thermometer, a stirrer, and Dean-Stark trap, and hexane was further added so that the total amount was 5 L, followed by reflux. The hexane solution was cooled to room temperature, and then insoluble substances were filtered off. The solvent of the filtrate was distilled off under vacuum, and the residue was dried at 110° C. for 5 hours to produce 2 g (yield 3%) of a solid containing [1,1′-binaphthalene]-2,2′,7,7′-tetraol as a main component.

[2] = Softening point, ball & ring (B & R) method, JIS K7234; details: glycerin heating medium
Text: 2) Method for measuring softening point: measured by a ball & ring (B & R) method using glycerin as a heating medium according to JIS K7234.
Apparatus name: ASP-M2 model manufactured by Meitec Corporation

[3] = Melt viscosity at 150° C., ASTM D4287 (ICI viscometer method); set-up: Melt viscosity at 150° C. of epoxy resin: unit not given here; details: for Melt viscosity at 150° C. of epoxy resin: Table 1
Method: 1) Melt viscosity at 150° C.: measured with an apparatus below according to ASTM D4287.
Apparatus name: MODEL CV-1S manufactured by Codex Corporation

Row | solubility in hexane [1] | Softening point of epoxy resin [2] [°C] | Melt viscosity at 150° C. of epoxy resin ([3]; 150° C.) | melt viscosity ([3]; ICI viscometer method, measurement temperature 150° C.) [dPa·s] | 150° C. melt viscosity ([3]; 150° C., data given with the product description) [ps] | SMILES
1 | low solubility |  |  |  |  | Oc1ccc2ccc(O)c(-c3c(O)ccc4ccc(O)cc34)c2c1 [1,1′-Binaphthalene]-2,2′,7,7′-tetraol, [1,1′-binaphthalene]-2,2′,7,7′-tetraol]
2 |  | 61 | 1.1 | 1.1 |  | c1cc2ccc(OCC3CO3)c(-c3c(OCC4CO4)ccc4ccc(OCC5CO5)cc34)c2cc1OCC1CO1 (stereo not shown) [Example A-1, 2,2′,7,7′-tetraglycidyloxy-[1,1′-binaphthalene]]
3 |  | 91 | 4.5 |  | 4.5 | c1cc2ccc(OCC3CO3)c(Cc3c(OCC4CO4)ccc4ccc(OCC5CO5)cc34)c2cc1OCC1CO1 (stereo not shown) [Example A-2, reference compound]

Source: patent US10329231B2, “Epoxy compound, method for producing the same, epoxy resin composition, and cured product thereof” (DIC Corporation, priority 2012, dated 2019)
